Test results published in patent US20060189641A1, “Novel 6-phenlyphenanthridines” (priority 2003, published 2006).

What was measured:
PDE4 = experiment: Inhibition of the PDE4 activity (cytosol from human neutrophils, [3H]cAMP hydrolysis); assay type: biochemical; design: unit not given here; conditions: 0.5 μM cAMP, Motapizone 1 μM to suppress PDE3
Method: Method for Measuring Inhibition of PDE4 Activity
PDE4 activity was determined as described by Thompson et al. (Adv Cycl Nucl Res 10:69-92, 1979) with some modifications (Bauer and Schwabe, Naunyn-Schmiedeberg's Arch Pharmacol 311:193-198, 1980). At a final assay volume of 200 μl (96well microtiter plates) the assay mixture contained 20 mM Tris (pH 7.4), 5 mM MgCl2, 0.5 μM cAMP, [^3H]cAMP (about 30,000 cpm/assay), the test compound and an aliquot of cytosol from human neutrophilis which mainly contains PDE4 activity as described by Schudt et al. (Naunyn-Schmledeberg's Arch Pharmacol 344:682-690, 1991); the PDE3-specific inhibitor Motapizone (1 μM) was included to suppress PDE3 activity originating from contaminating platelets. Serial dilutions of the compounds were prepared in DMSO and further diluted 1:100 (v/v) in the assays to obtain the desired final concentrations of the inhibitors at a DMSO concentration of 1% (v/v) which by itself only slightly affected PDE4 activity.
After preincubation for 5 min at 37° C., the reaction was started by the addition of substrate (cAMP) and the assays were incubated for further 15 min at 37° C. 50 μl of 0.2 N HCl was added to stop the reaction and the assays were left on ice for about 10 min. Following incubation with 25 μg 5′-nucleotidase (Crotalus atrox snake venom) for 10 min at 37° C., the assays were loaded on QAE Sephadex A-25 (1 ml bed volume). The columns were eluted with 2 ml of 30 mM ammonium formulate (pH 6.0) and the […] for radioactivity. Results were corrected for blank values (measured in the presence of denatured protein) which were below 5% of total radioactivity. […] The IC50 -values for the compounds according to the invention for the inhibition of the PDE4 activity were determined from the concentration-inhibition curves by nonlinear-regression.

| Structure (SMILES) | −log IC50, Inhibition of the PDE4 activity (PDE4) | melting point |
| --- | --- | --- |
| COc1cc2c(cc1OC)[C@H]1CCCC[C@H]1N=C2c1ccc(C(C)=NO)cc1 [Compound 1, 1-[4-((4aR,10bR)-8,9-Dimethoxy-1,2,3,4,4a,10b-hexahydrophenanthridin-6-yl}-phenyl]-ethanone oxime] | 9.43 | 189 to 192 °C |
| COc1cc2c(cc1OC)C1CCCCC1N=C2c1ccc(C(=NO)c2ccccc2)cc1 [Compound 2, 1-[4-((4aR,10bR)-8,9-Dimethoxy-1,2,3,4a,10b-hexahydrophenanthridin-6-yl}phenyl]-1-phenyl-methanone oxime] | 9.04 | – |
| COc1cc2c(cc1OC)[C@H]1CCCC[C@H]1N=C2c1ccc(C(C)=NOCc2ccccc2)cc1 [Compound 4, 1-[4-((4aR,10bR)-8,9-Dimethoxy-1,2,3,4,4a,10b-hexahydrophenanthridin-6-yl}-phenyl]-ethanone O-benzyloxime] | 8.20 | – |
| COc1cc2c(cc1OC)[C@H]1CCCC[C@H]1N=C2c1ccc(C(C)=NOCc2ccc([N+](=O)[O-])cc2)cc1 [Compound 5, 1-[4-((4aR,10bR)-8,9-Dimethoxy-1,2,3,4,4a,10b-hexahydrophenanthridin-6-yl}-phenyl]-ethanone O-(4-nitrobenzyl)-oxime] | 8.41 | – |
| CCON=C(C)c1ccc(C2=N[C@@H]3CCCC[C@@H]3c3cc(OC)c(OC)cc32)cc1 [Compound 6, 1-[4-((4aR,10bR)-8,9-Dimethoxy-1,2,3,4,4a,10b-hexahydrophenanthridin-6-yl}-phenyl]ethanone O-ethyloxime] | 8.08 | – |
| COc1cc2c(cc1OC)C1CCCCC1N=C2c1ccc(C(C)=NOc2ccccc2)cc1 [Compound 7, 1-[4-((4aR,10bR)-8,9Dimethoxy-1,2,3,4,a,10b-hexahydrophenanthridin-6-yl}-phenyl]ethanone O-phenyloxime] | 8.26 | – |
| COc1cc2c(cc1OC)[C@H]1CCCC[C@H]1N=C2c1ccc(C(C)=NOCC(C)C)cc1 [Compound 8, 1-[4-((4aR,10bR)-8,9-Dimethoxy-1,2,3,4,4a,10b-hexahydrophenanthridin-6yl)-phenyl]-ethanone O-isobutyloxime] | 8.01 | – |
| COc1ccccc1NC(=O)CON=C(C)c1ccc(C2=N[C@@H]3CCCC[C@@H]3c3cc(OC)c(OC)cc32)cc1 [Compound 11, 2-{1-[4-((4aR,10bR)-8,9-Dimethoxy-1,2,3,4,4a,10b-hexahydrophenanthridin-6-yl)-phenyl]ethylideneaminooxy}-N-(2-methoxyphenyl)-acetamide] | 8.87 | – |
| COc1cc2c(cc1OC)C1CCCCC1N=C2c1ccc(C(C)=NOCC(=O)NCc2ccc(Cl)cc2)cc1 [Compound 12, N-(4-Chlorobenzyl)-2-{1-[4-((4aR,10bR)-8,9-dimethoxy-1,2,3,4,a,10b-hexahydrophenanthridin-6-yl)-phenyl]-ethylideneaminooxy}-acetamide] | 8.48 | – |
| COc1cc2c(cc1OC)C1CCCCC1N=C2c1ccc(C(C)=NOCc2cccc(Cl)c2)cc1 (centres unmarked) [Compound 13] | 8.41 | – |
| COc1cc2c(cc1OC)[C@H]1CCCC[C@H]1N=C2c1ccc(C(C)=NOCc2cccc(C(F)(F)F)c2)cc1 [Compound 14, 1-[4-((4aR,10bR)-8,9-Dimethoxy-1,2,3,4,4a,10b-hexahydrophenanthridin-6-yl}-phenyl]-ethanone O-(3-trifluoromethylbenzyl)-oxime] | 8.43 | – |
| COc1ccccc1CON=C(C)c1ccc(C2=N[C@@H]3CCCC[C@@H]3c3cc(OC)c(OC)cc32)cc1 [Compound 15, 1-[4-((4aR,10bR)-8,9-Dimethoxy-1,2,3,4,4a,10b-hexahydrophenanthridin-6-yl}-phenyl]-ethanone O-(2-methoxy-benzyl)-oxime] | 8.33 | – |
| COc1cc2c(cc1OC)[C@H]1CCCC[C@H]1N=C2c1ccc(C(C)=NOCc2ccc(F)cc2)cc1 [Compound 16, 1-[4-((4aR,10bR)-8,9-Dimethoxy1,2,3,4,4a,10b-hexahydrophenanthridin-6-yl}-phenyl]-ethanone O-(4-flurobenzyl)-oxime] | 8.36 | – |
| COc1cc2c(cc1OC)[C@H]1CCCC[C@H]1N=C2c1ccc(C(C)=NOCc2cccc(F)c2)cc1 [Compound 17] | 8.47 | – |
| COc1cc2c(cc1OC)[C@H]1CCCC[C@H]1N=C2c1ccc(C(C)=NOCc2ccccc2Cl)cc1 [Compound 18, 1-[4-((4aR,10bR)-8,9-Dimethoxy-1,2,3,4,4a,10b-hexahydrophenanthridin-6-yl}-phenyl]-ethanone O-(2-chlorobenzyl)-oxime] | 8.73 | – |
| COc1cc2c(cc1OC)[C@H]1CCCC[C@H]1N=C2c1ccc(C(C)=NOCCOc2ccccc2)cc1 [Compound 19, 1-[4-((4aR,10bR)-8,9-Dimethoxy-1,2,3,4,4a,10b-hexahydrophenanthridin-6-yl)-phenyl]-ethanone O-(2-phenoxyethyl)-oxime] | 8.73 | – |
| COc1cc2c(cc1OC)[C@H]1CCCC[C@H]1N=C2c1ccc(C(C)=NOCCOc2cccc(C(F)(F)F)c2)cc1 [Compound 20, 1-[4-((4aR,10bR)-8,9-Dimethoxy-1,2,3,4,4a,10b-hexahydrophenanthridin-6-yl}-phenyl]-ethanone O-[2-(3-trifluoromethylphenoxy)-ethyl]-oxime] | 8.00 | – |
| COc1cc2c(cc1OC)[C@H]1CCCC[C@H]1N=C2c1ccc(C(C)=NOCc2ccc(Cl)cc2)cc1 [Compound 22, 1-[4-((4aR,10bR)-8,9-Dimethoxy-1,2,3,4,4a,10b-hexahydrophenanthridin-6-yl)-phenyl]-ethanone O-(4-chlorobenzyl)-oxime] | 8.62 | – |
| COc1ccc(CON=C(C)c2ccc(C3=NC4CCCCC4c4cc(OC)c(OC)cc43)cc2)cc1 [Compound 23, 1-[4-((4aR,10bR)-8,9-Dimethoxy-1,2,3,4,4a,10b-hexahydrophenanthridin-6}-phenyl]-ethanone O-(4-methoxybenzyl)-oxime] | 8.75 | – |
| COc1cc2c(cc1OC)[C@H]1CCCC[C@H]1N=C2c1ccc(C(C)=NOCC(=O)N2CCOCC2)cc1 [Compound 24, 2-{1-[4-((4aR,10bR)-8,9-Dimethoxy-1,2,3,4,4a,10b-hexahydrophenanthridin-6-yl)-phenyl]-ethylideneaminooxy}-1-morpholin-4-yl-ethanone] | 8.25 | – |
| COc1cc2c(cc1OC)C1CCCCC1N=C2c1cccc(C(C)=NO)c1 (centres unmarked) [Compound 25] | 8.33 | – |
| COc1cc2c(cc1OC)[C@H]1CCCC[C@H]1N=C2c1cccc(C(=NO)c2ccccc2)c1 [Compound 26, 1-[3-((4aR,10bR)-8,9-Dimethoxy-1,2,3,4,4a,10b-hexahydrophenanthridin-6-yl}-phenyl]-1-phenyl-methanone oxime] | 9.27 | – |
